Assay results from US20200024223A1, “CRYSTALLINE SALTS OF (4S,4AS,5AR,12AS)-4-DIMETHYLAMINO-3,10,12,12A-TETRAHYDROXY-7-[(METHOXY(METHYL)AMINO)-METHYL]-1,11-DIOXO-1,4,4A,5,5A,6,11,12A-OCTAHYDRO-NAPHTHACENE-2-CARBOXYLIC ACID AMIDE AND METHODS OF USING THE SAME” (priority 2011, published 2020).
In brackets after ≈: the same amount, converted by molar mass. Where two headings read alike, the source gives them in different places.

Columns and labels:
[1] = Storage stability by HPLC-UV (chemical purity, β-isomer content, total impurity content); type: physicochemical
Description: The lower the β-isomer content, the higher the chemical purity of the salt. The β-isomer content is measured after synthesis of the salt and compared with the measured β-isomer content after storage for a designated period of time.
Another measure of chemical purity is defined by the content of other related impurities, by-products or degradation products of the salt, which represents the […] of the compound. The lower the content of total impurities as measured by HPLC, generally, by HPLC-UV, the higher the chemical purity of the salt. The total impurity content is measured after synthesis of the salt and compared with the measured total impurity content after storage for a designated period of time.
In order to determine the stability of Crystalline Mono Hydrochloride Salt, the β-isomer content of the salt was determined by HPLC-UV analysis and compared to the β-isomer content calculated after the salt was stored in an amber glass vial for approximately 75 days at ambient conditions.
The β-isomer content of Comparative Example 2 was also determined by HPLC-UV analysis at 0 days and compared to the β-isomer content calculated after the compound was stored in a clear glass vial for approximately 75 days at ambient conditions.
HPLC-UV and XRPD analysis were conducted on samples of Crystalline Mono Hydrochloride Salt, Crystalline Mesylate Salt and Crystalline Sulfate Salt at 0 days and after storage for 7 days at 40° C. and 75% RH. FIGS. 1, 4 and 7 show the XRPD analysis of the Crystalline Mono Hydrochloride Salt, Crystalline Mesylate Salt and Crystalline Sulfate Salt at 0 days and after storage at 40° C. and 75% RH with the graphs overlaid for comparison.
The results of HPLC-UV analysis for the same samples of Crystalline Mesylate Salt and Crystalline Sulfate Salt are shown in Table 4.

[2] = Differential scanning calorimetry (DSC); type: physicochemical; details: after synthesis
Description: DSC analysis as disclosed herein was collected on a TA Instruments Q2000 equipped with a 50 position auto-sampler. The instrument was calibrated for energy and temperature using certified indium. The calibration for thermal capacity was carried out using sapphire. […] A nitrogen purge at 50 ml.min^−1 was maintained over the sample. The instrument control software used was Advantage for Q Series v2.8.0.392 and Thermal Advantage v4.8.3 and the data was analyzed using Universal Analysis v4.4A. […] The observed apparent weight loss is due to instability of the machine. Table 5 below compares the DSC and TGA analysis of the crystalline salts of the present invention with the crystalline free base and Comparative Example 1.

[3] = Thermo-gravimetric analysis (TGA); type: physicochemical
Description: TGA is used to determine changes in weight in relation to change in temperature, which may reveal degradation of the compound and the presence of solvates or hydrates. TGA analysis as disclosed herein was collected on a TA Instruments Q500 TGA equipped with a 16 position auto-sampler. The instrument was temperature calibrated using certified Alumel and Nickel. […] A nitrogen purge at 60 ml.min^−1 was maintained over the sample. The instrument control and data analysis software used was Advantage for Q Series v2.8.0.392 and Thermal Advantage v4.8.3 and the data was analyzed using Universal Analysis v4.4A. […] The observed apparent weight loss is due to instability of the machine. Table 5 below compares the DSC and TGA analysis of the crystalline salts of the present invention with the crystalline free base and Comparative Example 1.

E. coli = experiment: In vitro MIC testing, antibacterial spectrum of activity; type: cell-based
Salmonella spp. = experiment: as above; type: cell-based
S. aureus RN450-1 [4] = experiment: S. aureus Systemic Intraperitoneal Challenge (IPC) Model; type: in vivo; details: CD-1 male mice, single SC dose 1 hour post infection, survival at 48 hours post infection
Description: Bacterial cultures were prepared by growing tetracycline-sensitive S. aureus RN450-1 overnight, then diluting with sterile phosphate-buffered saline (PBS). For each experiment, a total of 30 mice were infected by injection into the intraperitoneal cavity with 500 μl of 7.5×10^7 CFU in 5% sterile bacteriological mucin. […] The doses were administered subcutaneously (SC) at 1 hour post infection. An additional infected group of 5 mice was included as a negative control (untreated) group. For all studies but one, a positive control group(s) was included (e.g., doxycycline, minocycline, or ciprofloxacin). Mice were monitored for survival for up to 7 days. […] PD50 (protective dose, 50%) is the dose required to achieve 50% survival. The PD50 values reported are a mean of 2-3 independent experiments for each drug tested.

S. aureus RN450-1 [5] = experiment: S. aureus Thigh Wound Infection Model; type: in vivo; details: Staphylococcus aureus, RN4501, in Mus musculus, iv, read-out: S. aureus RN450-1 Thigh ED50
Description: Bacterial cultures were prepared by growing S. aureus RN450-1 overnight and diluting with sterile PBS. An injection of 100 μL of ˜1×10^6 CFU/mL in sterile PBS was injected into the thigh. Four groups of mice for each drug received doses of 0.33, 1, 3, or 9 mg/kg intravenously at 2 and 6 hours post infection. An additional group of untreated mice served as a negative control group. At 24 hours post infection, the thighs were collected aseptically, homogenized, and plated to enumerate bacterial load per thigh. Data are reported as ED50 values.

[6] = system: Carrageenan-Induced Rat Footpad Edema; experiment: Rat Carrageenan-Induced Footpad Edema inflammation model; type: in vivo; details: 3 hours post carrageenan
Description: Immediately following the carrageenan injection and 3 hours post-injection, the hind paw volume was measured with a digital water plethysmometer. Results were calculated as a percent change in paw volume over the 3 hours, divided by the baseline paw volume, and then adjusted for the mean percent inflammation in the untreated controls, and are presented in Table 10.

S. pneumoniae PBS 1339 = details: neutropenic CD-1 male mice, single IV dose 2 hours post infection, survival at 72 hours post infection
[7] = system: Streptococcus constellatus; experiment: In vitro MIC testing against anaerobic bacteria; type: cell-based; details: ATCC27823
[8] = system: Prevotella melaninogenica; experiment: In vitro MIC testing against anaerobic bacteria; type: cell-based
S. pneumoniae = experiment: In vitro MIC testing, antibacterial spectrum of activity; type: cell-based, Streptococcus pneumoniae; details: Streptococcus pneumoniae, PSSP, all but 3 strains inhibited
S. pyogenes = experiment: as above; type: cell-based; details: Streptococcus pyogenes, S. pyogenes
S. agalactiae = experiment: as above; type: cell-based; details: Streptococcus agalactiae, S. agalactiae
[9] = system: Streptococcus spp. [Group C]; experiment: as above; type: cell-based; details: Streptococcus, Group C streptococci
E. faecium = experiment: as above; type: cell-based; details: Enterococcus faecium, vancomycin-susceptible E. faecium
E. cloacae = experiment: as above; type: cell-based; details: Enterobacter cloacae, 7 of 30 strains inhibited
Staphylococcus aureus = experiment: Inhibition of macromolecular synthesis in Staphylococcus aureus (whole-cell assay); type: cell-based; details: S. aureus, at 8-fold the MIC
[10] = Escherichia coli, read-out: MIC50
[11] = Escherichia coli, read-out: MIC90

SMILES: CON(C)Cc1ccc(O)c2c1C[C@H]1C[C@H]3[C@H](N(C)C)C(O)=C(C(N)=O)C(=O)[C@@]3(O)C(O)=C1C2=O [Comparative Example 1, (4S,4aS,5aR,12aS)-4-dimethylamino-3,10,12,12a-tetrahydroxy-7-[(methoxy(methyl)amino)-methyl]-1,11-dioxo-1,4,4a,5,5a,6,11,12a-octahydro-naphthacene-2-carboxylic acid amide]
- β-isomer content at 0 days ([1]; 0 days): 3.6 % peak area
- β-isomer content after storage ([1]; 48 hours at about 40° C. and about 75% RH): 31.7 % peak area
- β-isomer content after storage ([1]; 36 days at about 25° C. and about 60% RH): 8.7 % peak area
- total impurity content at 0 days ([1]; HPLC-UV, 0 days): 4.2 % peak area
- total impurity content after storage ([1]; about 2 days at about 40° C. and about 75% RH): 34.6 % peak area
- Differential Scanning Calorimetry [2]: Broad endothermic
- TGA weight loss ([3]; from about 30° C. to about 106° C.): 7% weight loss from about 30 °C to
- TGA weight loss ([3]; from about 106° C. to about 200° C.): 8% weight loss from about 106 °C
- TGA weight loss ([3]; from about 200° C. to about 300° C.): 23% weight loss from about 200 °C

SMILES: C[C@H]1c2cccc(O)c2C(=O)C2=C(O)[C@]3(O)C(=O)C(C(N)=O)=C(O)[C@@H](N(C)C)[C@@H]3[C@@H](O)[C@@H]21 [Doxycycline, doxycycline]
- MIC Range (E. coli): 64-64 μg/mL
- MIC (E. coli; Escherichia coli): 64 µg/mL (≈ 144 µM)
- MIC50 (E. coli; [10]): 2 µg/mL (≈ 4.5 µM)
- MIC90 (E. coli; [11]): 32 µg/mL (≈ 72 µM)
- MIC50 (Salmonella spp.): 2 µg/mL (≈ 4.5 µM)
- MIC90 (Salmonella spp.): 32 µg/mL (≈ 72 µM)
- S. aureus RN450-1 IPC PD50 (S. aureus RN450-1 [4]): 0.30 mg/kg
- ED50 (S. aureus RN450-1 [5]): 8.31 mg/kg
- Mean Percent Inflammation Compared to Untreated Controls ([6]; 75 mg/kg IP): 68%
- Mean Percent Inflammation Compared to Untreated Controls ([6]; 100 mg/kg IP): 36%
- S. pneumoniae PBS1339 RTI PD50 (S. pneumoniae PBS 1339): 7.18 mg/kg

SMILES: CN(C)c1ccc(O)c2c1C[C@H]1C[C@H]3[C@H](N(C)C)C(O)=C(C(N)=O)C(=O)[C@@]3(O)C(O)=C1C2=O [Minocycline, minocycline]
- MIC [7]: 16 µg/mL (≈ 35 µM)
- MIC [8]: 16 µg/mL (≈ 35 µM)
- MIC Range (E. coli): 8 to 16 µg/mL
- MIC (E. coli; Escherichia coli): 16 µg/mL (≈ 35 µM)
- MIC50 (E. coli; [10]): 1 µg/mL (≈ 2.19 µM)
- MIC90 (E. coli; [11]): 8 µg/mL (≈ 17.5 µM)
- MIC90 (Salmonella spp.): 8 µg/mL (≈ 17.5 µM)
- S. aureus RN450-1 IPC PD50 (S. aureus RN450-1 [4]): 0.03 mg/kg
- Mean Percent Inflammation Compared to Untreated Controls ([6]; 25 mg/kg IP): 47%
- Mean Percent Inflammation Compared to Untreated Controls ([6]; 50 mg/kg IP): 33%
- Mean Percent Inflammation Compared to Untreated Controls ([6]; 75 mg/kg IP): 54%
- Mean Percent Inflammation Compared to Untreated Controls ([6]; 100 mg/kg IP): 21%

SMILES: CON(C)Cc1ccc(O)c2c1C[C@H]1C[C@H]3[C@H](N(C)C)C(O)=C(C(N)=O)C(=O)[C@@]3(O)C(O)=C1C2=O [The Active, (4S,4aS,5aR,12aS)-4-dimethylamino-3,10,12,12a-tetrahydroxy-7-[(methoxy(methyl)amino)-methyl]-1,11-dioxo-1,4,4a,5,5a,6,11,12a-octahydro-naphthacene-2-carboxylic acid amide]
- MIC (S. pneumoniae): ≤ 0.25 µg/mL
- MIC (S. pyogenes; all but 6 strains inhibited): ≤ 0.25 µg/mL
- MIC (S. pyogenes; elevated MICs for 5 strains): ≥ 4 µg/mL
- MIC (S. agalactiae; 7 strains inhibited): ≤ 0.25 µg/mL
- MIC (S. agalactiae; remainder of the isolates): 16 to 32 µg/mL (≈ 32.8 to 65.6 µM)
- MIC ([9]; 19 strains inhibited): ≤ 0.25 µg/mL
- MIC ([9]; remainder of the isolates): 4 to 16 µg/mL (≈ 8.2 to 32.8 µM)
- MIC (E. faecium; 17 strains inhibited): ≤ 0.5 µg/mL
- MIC (E. faecium; remainder of the isolates): 16 to 32 µg/mL (≈ 32.8 to 65.6 µM)
- MIC50 (E. coli): 16 µg/mL (≈ 32.8 µM)
- MIC90 (E. coli): > 64 µg/mL
- MIC50 (E. coli; Escherichia coli, E. coli (33 isolates), read-out: MIC50): 16 µg/mL (≈ 32.8 µM)
- MIC (E. cloacae): ≤ 1 µg/mL
- MIC50 (Salmonella spp.): 16 µg/mL (≈ 32.8 µM)
- inhibition for the synthesis of cell wall, DNA, RNA and lipid components (Staphylococcus aureus): less than 20%
- S. aureus RN450-1 IPC PD50 (S. aureus RN450-1 [4]): 0.25 mg/kg
- ED50 (S. aureus RN450-1 [5]): 8.23 mg/kg
- Mean Percent Inflammation Compared to Untreated Controls ([6]; 1 mg/kg IP): 103%
- Mean Percent Inflammation Compared to Untreated Controls ([6]; 5 mg/kg IP): 78%
- Mean Percent Inflammation Compared to Untreated Controls ([6]; 10 mg/kg IP): 65%
- Mean Percent Inflammation Compared to Untreated Controls ([6]; 25 mg/kg IP): 59%
- Mean Percent Inflammation Compared to Untreated Controls ([6]; 50 mg/kg IP): 52%
- Mean Percent Inflammation Compared to Untreated Controls ([6]; 75 mg/kg IP): 56%
- Mean Percent Inflammation Compared to Untreated Controls ([6]; 100 mg/kg IP): 53%
- Mean Percent Inflammation Compared to Untreated Controls ([6]; 150 mg/kg IP): 26%
- S. pneumoniae PBS1339 RTI PD50 (S. pneumoniae PBS 1339): 4.66 mg/kg
